Experimental data reported in patent US8377934B2, “Use of stilbene derivatives for treatment and prevention of aquatic mold infections” (State of Israel, Ministry of Agriculture & Rural …, priority 2006, dated 2013).
Values after ≈ are worked out from the molar mass of the structure shown.

Tests used:
S. parasitica = assay: In vitro susceptibility of S. parasitica in Table 4; format: cell-based, Saprolegnia parasitica
Description: The in vitro susceptibility of Saprolegnia parasitica T-1 and S. parasitica CBS 540.67 to various compounds was determined by the agar-dilution and broth macrodilution methods.
Two methods were used, each suitable for a different phase of the asexual life cycle of Saprolegnia spp.: i) the broth macrodilution method, for determination of susceptibility of zoospores and cysts; and ii) the agar-dilution method for determination of susceptibility of filamentous hyphae. Each compound was tested three times in each method. Malachite Green was used as positive control.
This method is a modification of the method used for molds according to EUCAST 7.1 (European Committee on Antibiotic Susceptibility Testing) and CLSI/NCCLS M27-A2 (Clinical Laboratory Standards Institute/National Committee for Clinical Laboratory Standards). For inoculum preparation, S. parasitica isolates were cultured on GP-PS for 7 days with sterile clover seeds at 18° C. Clover seeds (˜20) covered with mycelium were removed and added to 40 ml of RPMI-1640 broth medium (Sigma; prepared according to NCCLS instructions) and incubated at 18° C. for 4-7 days. Cysts and zoospores free from hyphae were collected, and an inoculum of ˜10^3 CFU/ml as measured by hemacytometer counting, was prepared in RPMI. Fluorescent Brightener 28 stock solution was prepared by adding 40% KOH gradually to a 10 mg/ml solution in water, until it was clear, then it was filtered twice through a 0.2 μm cellulose acetate nonpyrogenic sterile filter (Schleicher & Schuell, Dassel, Germany).
Twofold serial dilutions of the resulting stock solutions were set in RPMI-1640 medium in a volume of 0.1 ml. Final drug concentrations in the test tubes ranged from 1×10^4 to 0.01 mg/L. Inoculum of 0.9 ml was added to each of a sterile tube containing 0.1 ml of the serially diluted drug. Two tubes containing drug-free medium and two tubes containing drug-free inoculum were used as controls. The inoculated tubes were incubated at room temperature (15-20° C.) for 24 h. The growth in each tube was then evaluated visually.
This method is a modification of the method presented by Bailey (Bailey, T. A. (1983) Prog. Fish Cult. 45:24-27), and was used for the susceptibility testing of Saprolegnia hyphae. Twofold serial dilutions were prepared in double distillated sterile water with final drug concentrations ranging from 10,000 to 0.01 mg/L in a final volume of 1.0 ml. Melted (56° C.) RPMI-1640 agar medium (Sigma) was prepared according to NCCLS instructions, and then added to each tube containing drug or water control. The mixture was vortexed, and poured into small plates. After agar solidification a small measured piece, taken from a 7-10 day old culture of S. parasitica T-1 on GP-PS medium was placed upside down on each plate. The plates were incubated at room temperature (15-20° C.) for 24 h.

[1] = tested on: Lake Kinneret water samples; assay: Delayed Fluorescent Excitation Spectroscopy (DFES) of natural phytoplankton; format: cell-based; details: 100 mg/L; 4.6 μg/L prior to exposure
Description: The Delayed Fluorescent Excitation Spectroscopy (DFES) method was used for qualitative and quantitative assessment of the influence of Blankophor® BA on the natural population of phytoplankton, and on specific algae strains. Delayed fluorescence is a unique characteristic of photosynthetically active cells, as it is an outcome of recombination that takes place in the thylakoids in the dark (Yacobi Y. Z., V. Gerhardt, Y. Gonen-Zurgil, and A. Sukenik. 1998. Delayed fluorescence excitation spectroscopy: a rapid method for the qualitative and quantitative assessment of natural population of phytoplankton. Wat. Res. 00:1-6).
Samples from Lake Kinneret and pure cultures of Peridinium sp. and Microcystis sp. were exposed to Blankophor® BA (100 mg/L), for a few minutes and the concentration of chlorophyll-a was determined (in duplicate) according to the excitation spectrum examined (range from 400 to 730 nm). In addition, the exposed and non-exposed samples were assessed for carbon uptake with a ^14C technique.

[2] = tested on: Gyrodactilus sp. and Trichodina sp.; assay: Non-randomized field trial in a cement pond, concurrent parasitic disease; format: in vivo, hybrid tilapia; details: 50 mg/L, 3 treatments of 8 h at 48 h intervals; 2 days after end
Description: Following transfer of 2000 hybrid tilapia fish (20-30 g) to a cement pond (1×10^5 L, 21 to 25° C.), white patches of filamentous mycelium were observed on the body and fins of fish, covering in most cases about 80% of the body surface. The mycelia appeared about four days after the transfer, presumably due to opportunistic infection by Saprolegnia sp. following handling stress. Death of 20 to 30 fish per day was recorded. All the dead fish were covered with mycelium, characteristic of Saprolegnia sp., and were also found to be infected with the parasites Gyrodactilus sp. and Trichodina sp.
The water capacity in the pond was decreased to 3×10^4 L, and treatment with Blankophor® BA (50 mg/L) was initiated. A regimen of 3 treatments (8 h each) with 48 hours intervals between them was used.

Daphnia sp. = assay: Toxicity to zooplankton (motility); format: in vivo; details: 100 and 1,000 mg/L, 48 h
Description: Daphnia sp. is a small (0.2 to 5 mm in length) planktonic crustacean, commonly used as a model for aquatic toxicity.
Daphnia (˜1,000 […]/L water) was exposed to Blankophor® BA 100 and 1,000 mg/L). The experiment was carried out in covered flasks (100 ml/per flask), equipped with air supply. The flasks were incubated at room temperature for 48 h, and the Daphnia motility was recorded.

tilapia = assay: in vivo; details: for LC50: tilapia, mortality up to 96 h
Description: LC50 values were determined by static short-term tests as a measure of the relative acute lethal toxicity for tilapia (Standard methods for the evaluation of water and wastewater (1985) 16th ed. American Public Health Association, Washington, D.C. p. 689-819).
Hybrid tilapia (Oreochromis niloticus X Oreochromis aureus) having an average weight of 20 g, were kept in 100 liter polyethylene tanks at a density of 1 fish per 10 liters, at a constant temperature of 21° C. for three weeks before the initiation of the experiment by addition of a test compound to each tank. […] For the latter experiments, fish were acclimated to the required temperature for three weeks prior to addition of the test compound to the tank. Fish were treated with 5 different concentrations of each test compound, determined according to the MIC values of each compound.
Mortality of fish was recorded up to 96 h. Water parameters (O2, NH4^+, NO2^−, pH and Cl^−) were monitored throughout the experiment and were maintained within acceptable limits. The presented results are the mean of two separate experiments.

O=S(=O)([O-])c1cc(Nc2nc(Nc3ccccc3)nc(N(CCO)CCO)n2)ccc1C=Cc1ccc(Nc2nc(Nc3ccccc3)nc(N(CCO)CCO)n2)cc1S(=O)(=O)[O-].[K+].[Na+] [Blankophor® BA]
Activity in vitro (MIC), grade (S. parasitica; Table 4 summary): Moderate | Activity in vitro (MIC), value (S. parasitica; Table 4 summary): (100 mg/L) | total chlorophyll concentration (average) [1]: 9.2 µg/L | presence of parasites on visual and microscopic examination [2]: free of | Daphnia motility versus non-exposed control (Daphnia sp.): no difference | Toxicity (tilapia; Table 4 summary): Low (low = >1000 ppm) | LC50 (tilapia; 15° C.): >2,000 mg/L | LC50 (tilapia; 18° C.): >2,000 mg/L | LC50 (tilapia; 25° C.): >2,000 mg/L

C=O [Formaldehyde]
MIC (S. parasitica; Saprolegnia parasitica, read-out: Activity in vitro (MIC), value): 100 µg/mL (≈ 3.33 mM) | Toxicity (tilapia; in vivo): Moderate (key: High: high = 50 ppm; Moderate: moderate = 50-200 ppm; Low: low = >1000 ppm)
